This assay deals with T1, SthK-Cterm (Winmispira thermophila, UniProt E0RR11).
T1 construct: gene STHERM_c06300; C-linker/CNBD, residues 226-430 of full length; synthetic gene, His6-MBP fusion cut with thrombin; E. coli BL21(DE3); tetramer (SEC-MALLS); model residues 226-423
Kind of assay: X-ray crystal structure. The following applies: antagonist; 5 mM cGMP added; bistrispropane pH 7.5, 20 °C; 2.55 Å; cyclic nucleotide-binding site.

T1 sequence (E0RR11 entry or part of it): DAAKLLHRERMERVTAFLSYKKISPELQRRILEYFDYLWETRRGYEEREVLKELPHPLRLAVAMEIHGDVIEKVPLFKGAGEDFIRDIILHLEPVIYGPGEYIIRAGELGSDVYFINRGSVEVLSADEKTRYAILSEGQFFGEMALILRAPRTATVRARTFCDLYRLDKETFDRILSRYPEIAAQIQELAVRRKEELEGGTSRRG

As for `Nc1nc2c(ncn2[C@@H]2O[C@@H]3COP(=O)(O)O[C@H]3[C@H]2O)c(=O)[nH]1` [cGMP], the X-ray crystal structure entry is recorded as “we observe that cGMP is able to bind in the cyclic nucleotide binding cavity from SthK”.

The values are drawn from publication PMC4308110 (PLoS ONE, 2015).
